Test results from patent US11357766B2, “Compositions and methods for treating cancer” (Texas Tech University System, priority 2017, dated 2022).
Like-named read-outs stand apart in the source and are kept apart here.

Columns and labels:
BxPC3 cells = test: AnnexinV/FITC apoptosis assay; type: cell-based, human; settings: 48 hours
Experimental: (§1) Briefly, the following cells were treated at 0.2×10^6, in FIG. 2A AsPC1 cells, FIG. 2B BxPC3 cells, and in FIG. 2C PANC1 cells, which were plated and treated with 5, 7.5 and 10 μM pimavanserin tartrate for 48 hours. Percent apoptotic cells was evaluated by AnnexinV/FITC apoptosis assay using Accuri C6 flow cytometer. Studies were repeated independently 3 times.
(§2) AnnexinV/FITC apoptosis assay. The effects of pimavanserin in inducing apoptosis were assessed by AnnexinV/FITC apoptosis assay. The assay was performed by FITC AnnexinV apoptosis detection kit (BD biosciences, San Jose, Calif., USA). Briefly, 0.2×10^6 pancreatic cancer cells were plated in each well of 6-well plate and incubate overnight for the cells to attach. The cells were then treated with varying concentrations of pimavanserin tartrate. After 48 hours, cells were trypsinized and suspended in PBS. Cells were washed and re-suspended in 150 μl of annexin binding buffer. The cells were then stained with 4 μl AnnexinV FITC and 4 μl propidium iodide for 20 minutes in dark. Post incubation, the volume was adjusted to 350 μl by adding annexin binding buffer. Samples were then analyzed by flow cytometer (Accuri C6, AnnArbor, Mich., USA) as previously described by the present inventors (7).
(§3) Pimavanserin induces apoptosis in pancreatic cancer cells. In order to determine the mechanism of anti-proliferative effects of pimavanserin tartrate, apoptosis induction by pimavanserin tartrate treatment was determined in AsPC1, BxPC3 and PANC1 pancreatic cancer cells by AnnexinV/FITC assay using flow cytometer. […] Treatment of AsPC1 and BxPC3 cells with 7.5 μM pimavanserin caused 2-fold increase in apoptotic cells (FIG. 2A, 2B), whereas in PANC1 cells, a 4-fold increase in apoptotic cells was observed (FIG. 2C). […] Induction of apoptosis by pimavanserin treatment in AsPC1, BxPC3 and PANC1 cells was confirmed by cleavage of caspase 3 (FIGS. 3A-3C).

PANC1 cells = test: AnnexinV/FITC apoptosis assay; type: cell-based, human; settings: 48 hours
Experimental: as §1, §2, §3

AsPC1 cells = test: AnnexinV/FITC apoptosis assay; type: cell-based, human; settings: 7.5 μM, 48 hours
Experimental: as §1, §2, §3

pancreatic cancer cells = test: Glycolysis, mitochondrial respiration and marker expression in pancreatic cancer cells; type: cell-based
[1] = tested on: AsPC1, BxPC3, PANC1, MIAPaCa2, PO2, A375VR, SKMEL-28, HCT-116, 4T1, U87, U251, T98G, CT2A cells; test: Cytotoxicity studies, sulforhodamine B (SRB) assay; type: cell-based, human and murine; settings: range over all the cell lines, read-out: IC50 (cell survival)
Experimental: FIGS. 1A to 1E show the effect of Pimavanserin tartrate suppresses the cell survival of pancreatic cancer cells. FIGS. 1F to 1G show the effect of pimavanserin tartrate suppresses the cell survival of melanoma cells. […] In the figures, the following cancer cells were evaluated: AsPC1 cells (FIG. 1A), BxPC3 cells (FIG. 1B), PANC1 cells (FIG. 1C), MIAPaCa2 cells (FIG. 1D), PO2 cells (FIG. 1E), A375VR cells (FIG. 1F), SKMEL-28 cells (FIG. 1G), HCT-116 cells (FIG. 1H), 4T1 cells (FIG. 1I), U87 cells (FIG. 1J), U251 cells (FIG. 1K), T98G vells (FIG. 1L), CT2A cells (FIG. 1M) which were treated with varied concentrations of pimavanserin tartrate for 24, 48 and 72 hours. Cell survival was determined by sulforhodamine B assay to estimate the IC50 values. The studies were repeated independently for three times with 4 replicates in each test. Values are plotted as mean±SD and the statistical significance level was considered as p<0.05.
Cell culture. Human pancreatic cancer cell lines AsPC1, BxPC3, PANC1, MIAPaCa2 cells, SKMEL-28 human melanoma cells, U87, U251, T98G human glioblastoma cells, and human colon cancer cell line HCT-116 were purchased from ATCC (Rockville, Md.). CT2A murine glioblastoma cells was a kind gift from Dr. Jill Edgar, Boston College, Boston. Cell lines were authenticated by STR analysis at TTUHSC core facilities (Lubbock, Tex.). […]
Cytotoxicity studies. The cytotoxic effects of pimavanserin tartrate in AsPC1, BxPC3, PANC1, MIAPaCa2, PO2, A375VR, SKMEL-28, HCT-116, 4T1, U87, U251, T98G, CT2A cells were determined by sulforhodamine B (SRB) assay. […] The optical density was measured using plate reader (Biotek instruments) as described by the present inventors (12).
Pimavanserin inhibited the proliferation of cancer cells, which included pancreatic cancer, melanoma, colon cancer, glioblastoma and breast cancer cells. The cytotoxic effects of pimavanserin were evaluated by SRB assay in the above mentioned cancer cells. […]

## CC(C)COc1ccc(CNC(=O)N(Cc2ccc(F)cc2)C2CCN(C)CC2)cc1 [pimavanserin, N-(4-fluorophenylmethyl)-N-(1-methylpiperidin-4-yl)-N′-(4-(2-methylpropyloxy)phenylmethyl)carbamide]
BxPC3 cells; 7.5 μM
  increase in apoptotic cells: 2 fold
BxPC3 cells; 10 μM
  increase in apoptotic cells: 5 fold
PANC1 cells; 7.5 μM
  increase in apoptotic cells: 4 fold
PANC1 cells; 10 μM
  increase in apoptotic cells: 5 fold
AsPC1 cells
  increase in apoptotic cells: 2 fold
Pancreatic cancer cells; Western blot
  cleavage of caspase3 and PARP: increasing
  expression of main metabolic markers Hexokinase-1, LDH-A and FOXM1: inhibits
Pancreatic cancer cells; pancreatic cancer cells
  glycolysis and mitochondrial respiration: inhibits
  key oncogenic markers pAkt(S473), pSTAT3 (Y705 & S727), β-catenin, Cyclin D1, Mc1-1, HER2, EGFR, VEGFR2, c-Myc, CD44, Oct-4: inhibiting
[1]; 24 hours
  IC50: 7 to 15 µM
[1]; 48 hours
  IC50: 3 to 8 µM
[1]; 72 hours
  IC50: 3 to 8 µM
